In US20240100072A1, “SUBCUTANEOUSLY ADMINISTERED TREATMENTS FOR ADVANCED PARKINSON'S DISEASE” (AbbVie Inc., priority 2021, published 2024):

Experiments:
plasma proteins = assay: Distribution: erythrocyte/plasma partitioning, plasma protein binding, blood-brain barrier; format: in vitro ADME
From the text: Levodopa is transported into the brain by the carrier mechanism for large neutral amino acids.

[1] = Metabolism and elimination; conditions: in vivo; for half-life: human
From the text: Levodopa is mainly eliminated via metabolism by the aromatic amino acid decarboxylase (AAAD) and the catechol-O-methyl-transferase (COMT) enzymes. Other routes of metabolism are transamination and oxidation. The decarboxylation of levodopa to dopamine by AAAD is the major enzymatic pathway when no enzyme inhibitor is co-administered. O-methylation of levodopa by COMT forms 3-O-methyldopa. […] These 2 metabolites are primarily eliminated in the urine unchanged or as glucuronide conjugates.

Compound: C[C@@](Cc1ccc(O)c(O)c1)(NN)C(=O)O [carbidopa]
- blood-brain barrier passage (plasma proteins): does not cross the blood-brain barrier
- half-life [1]: ~2 h
- unchanged drug as share of the total urinary excretion [1]: 30%

Compound: N[C@@H](Cc1ccc(O)c(O)c1)C(=O)O [levodopa, L-3,4-dihydroxyphenylalanine]
- binding to plasma proteins (plasma proteins): < 10%
- partitioning ratio between erythrocytes and plasma (plasma proteins): approximately 1
- half-life [1]: ~1.5 h
